Assay results published in patent US6043219A, “Broad spectrum chemotherapeutic peptide” (Kansas State University Research Foundation, priority 1997, dated 2000).
Entries after “also recorded” stand apart in the source; their conditions may differ.

Assays:
[1] = system: Corynebacterium renale; assay: Inhibitory spectrum, bactericidal assay (plate method); type: cell-based; conditions: C. renale compared with other sensitive organisms
[2] = system: C. renale; conditions: finally purified BacR1, 37° C., 5 h, A550
[3] = system: Haemophilus parasuis; assay: Inhibitory spectrum, bactericidal assay (plate method); type: cell-based; conditions: Hemophilus parasuis
[4] = system: Bordetella pertussis; assay: as above; type: cell-based; conditions: Bordatella pertussis
[5] = Preparative isoelectric focusing (Rotofor); type: physicochemical; conditions: ammonium sulfate-precipitated culture supernatant, ampholytes pH 3-10, fractions 15 through 17
Experimental: Isoelectric focusing of ammonium sulfate-precipitated culture supernatants of S. aureus UT0007 was carried out on a Rotofor isoelectric focusing cell (Bio-Rad, Richmond, Calif.) in order to define certain biophysical characteristics of BacR1. Concentrated culture supernatants were dialyzed overnight in 3,500 molecular-weight-cutoff dialysis tubing (SpectraPor, Los Angeles, Calif.) against 4 L distilled water at 4° C. The dialyzed sample was centrifuged at 9,000× g for 10 min at 4° C. to remove insoluble material, and the supernatant was diluted to a total volume of 55 ml with distilled water. Ampholytes (pH 3-10) (Fisher, St. Louis, Mo.) were added to a final concentration of 1% and the sample was loaded into the Rotofor cell for focusing at 12 W constant power at 4° C. The initial conditions were approximately 600 V and 35 mA; upon equilibrium the values were approximately 1200 V and 15 mA. Twenty individual fractions were harvested and the total protein, pH, and BacR1 activity for each fraction was determined.

[6] = system: C. renale; assay: SDS-PAGE bioassay (gel overlaid with top agar containing C. renale); type: cell-based, Corynebacterium renale; conditions: finally purified BacR1
From the text: Purified preparations of BacR1 were subjected to electrophoretic analysis by SDS-PAGE. After electrophoresis, gels were either silver stained (Blum et al. 1987. Electrophoresis 8:93-99) or bioassayed using a slight modification of the method of Bhunia et al. (1987. J. Indust. Microbiol. 2:319-322). Briefly, each protein sample was electrophoresed in a 10-20% SDS-PAGE gradient gel (Bio-Rad, Richmond, Calif.) as previously described (Laemmli et al. 1970. Nature. 227:680-685). After electrophoresis, SDS was removed by soaking the gel in 20% isopropanol-10% acetic acid in water for 2 h, followed by rinsing in distilled water for 4 h. The gel was then placed on a BHT-80 agar plate and overlaid with BHT-80 top agar (0.7% agar) containing C. renale. After incubation at 37° C. overnight, the plate/gel combination was examined for zones of growth inhibition.

[7] = system: Moraxella bovis; assay: Inhibitory spectrum, bactericidal assay (plate method); type: cell-based
[8] = system: Corynebacterium renale ATCC 19412; assay: Bactericidal assay of BacR1 (plate method)
[9] = system: C. renale; assay: Effect of BacR1 on viability of C. renale (A550 and viable cell counts over time); type: cell-based, Corynebacterium renale
Experimental: FIG. 9 includes a pair of graphs illustrating the effect of BacR1 on the viability C. renale; the A550 of a culture of control cells (-.circle-solid.-) and a culture of cells incubated with BacR1 at a concentration of 100 AU/ml (-.box-solid.-) was measured at respective times;
FIG. 10 includes a pair of graphs illustrating the effect of BacR1 on the viability C. renale; viable cell counts for a culture of control cells (-.circle-solid.-) and a culture of cells incubated with BacR1 at a concentration of 100 AU/ml (-.box-solid.-) were determined at respective times.
BacR1 kills C. renale in a dose-dependent fashion, with a MIC50 of approximately 6 AU/ml (FIG. 8). Furthermore, the killing is rapid in the absence of cell lysis as evidenced in FIGS. 9 and 10. No viable cells were detected after 120 min of exposure to BacR1. […] Such recovery would be observed with a bacteriostatic agent.

[10] = system: vancomycin-resistant strains of Enterococcus faecalis and E. faecium; assay: Additional analyses of the inhibitory spectrum; type: cell-based; conditions: remainder varying degrees of resistance
[11] = system: S. aureus; assay: Inhibitory spectrum, S. aureus; type: cell-based, Staphylococcus aureus
[12] = system: methicillin-resistant S. aureus (MRSA) strains; assay: Additional analyses of the inhibitory spectrum; type: cell-based, Staphylococcus aureus; conditions: ten MRSA strains tested
[13] = system: Bordetella brochoseptica; assay: Inhibitory spectrum, bactericidal assay (plate method); type: cell-based; conditions: B. bronchoseptica
[14] = system: Pasteurella multocida; assay: as above; type: cell-based
[15] = Stability of BacR1: residual activity by bactericidal assay (plate method) after treatments; type: physicochemical
Experimental: 7A, p. 315-422. […] Appl. Microbiol. 21:943].
The stability of BacR1 was assessed by determining the activity of BacR1 by bactericidal assay (plate method) after exposure to various temperatures, environmental conditions, and enzymes (Table 2). Solutions of finally purified BacR1 at a concentration of 640 AU/ml were used in these stability experiments. BacR1 samples were held at various temperatures for 15 min, were held at pHs ranging from 3 to 11 at room temperature for 1 h, were incubated in 6M urea at room temperature for 1 h, or were incubated with 1 mg/ml of enzyme at room temperature for 1 h.

[16] = crude preparation, Rogolsky et al. paper; cited from earlier work
[17] = system: Streptococcus suis; assay: Inhibitory spectrum, bactericidal assay (plate method); type: cell-based

BacR1: 26-mer proteinaceous bacteriocin of approximately 3.4 kilodaltons produced by S. aureus UT0007; peptide sequence SEQ ID No. 3 (LGGAATGVIGYISNQTCPTTACTRAC)
relative susceptibility [1]: equally (and most) sensitive | MIC50 (concentration that caused a 50% inhibition of growth) [2]: approximately 6 AU/ml | sensitivity to BacR1 (in words) [3]: sensitive | sensitivity to BacR1 (in words) [4]: sensitive | apparent average pI [5]: 7.7 | bactericidal activity in SDS-PAGE gel overlay [6]: possessed BacR1 activity | relative susceptibility [7]: equally (and most) sensitive | sensitivity to BacR1 (in words) ([7]; Moraxella bovis): especially sensitive | Specific Activity ([8]; purification stage: Ammonium Sulfate): 1259 AU/mg | Specific Activity ([8]; purification stage: C4 Reverse-Phase (1st cycle)): 16,642 AU/mg | Specific Activity ([8]; purification stage: C4 Reverse-Phase (2nd cycle), finally purified): 37,450 AU/mg | Specific Activity ([8]; purification stage: Cation Exchange): 6963 AU/mg | Specific Activity ([8]; purification stage: Supernatant (1 L)): 152 AU/mg | exposure time after which no viable cells were detected ([9]; BacR1 100 AU/ml): 120 min | mode of action (bactericidal vs bacteriostatic) ([9]; prolonged incubation, cells do not recover): bactericidal | share of tested strains sensitive to BacR1 [10]: About 40% | sensitivity to BacR1 (in words) ([11]; S. aureus): killed | relative susceptibility ([11]; S. aureus compared with other sensitive organisms): susceptible, but required higher doses | sensitivity to BacR1 (in words) [12]: very sensitive | sensitivity to BacR1 (in words) [13]: killed; also recorded: sensitive | sensitivity to BacR1 (in words) [14]: killed | % Residual Activity ([15]; 4° C., 15 min, 640 AU/ml): 100% | % Residual Activity ([15]; 25° C., 15 min, 640 AU/ml): 100% | % Residual Activity ([15]; 37° C., 15 min, 640 AU/ml): 100% | % Residual Activity ([15]; -20° C., 15 min, finally purified BacR1 640 AU/ml): 100% | % Residual Activity ([15]; pH 3 to 11, room temperature, 1 h, 640 AU/ml): 100% | maximum specific activity [16]: 46 AU/mg | sensitivity to BacR1 (in words) [17]: killed
